Assays:
Assay type in all cases: binding
[1] = system: carbonic anhydrase II (CA); assay: Intact protein MS photoaffinity labeling screen, carbonic anhydrase; settings: intact protein MS after 10 min irradiation
Experimental: (§1) Using a plate-based format with one fragment per well, each fragment was incubated with the target proteins for 15 min to allow for the formation of non-covalent interactions. […] Finally, the results were directly analyzed from the plate using intact protein mass spectrometry by observing the mass additions that correspond to successful labeling (Fig. 2c, for labeling % values see Supplementary data). The library was first characterized against three benchmark proteins like carbonic anhydrase (CA), lysozyme (Lyo), and myoglobin (Myo).

BRD4-BD1 = system: T1, BRD4-BD1; assay: Intact MS photoaffinity labeling screen, BRD4-BD1 (302 nm, LCMS-TOF); settings: for MS labeling percentage, BRD4: BRD4-BD1, 302 nm 10 min; for BRD4-BD1: experimental hit status flag (0/1); for experimental hit status BRD4-BD1: 0/1 flag
T1 construct: screened the PhP library against the first bromodomain of BRD4 (BRD4-BD1); purchased GSK/GenScript
Experimental: as §1
(§2) The PhP library was screened against BRD4-BD1 and KRas^G12D as follows. […] The probe plate was placed on ice. 15 μL of protein stock solution (1 μM BRD4-BD1 (GSK/GenScript) or KRas^G12D (GSK/GenScript) in PBS buffer) was dispensed into wells containing fragments. The plate was left on ice for 15 min for incubation, then irradiated at 302 nm for 10 min, and centrifuged (1000 rpm, 1 min) to remove any bubbles. […] The deconvoluted spectra were analyzed using R Studio software.

KRas^G12D = system: T2, KRas^G12D; assay: Intact MS photoaffinity labeling screen, KRas G12D (302 nm, LCMS-TOF); settings: for MS labeling percentage, KRas: KRas G12D, 302 nm 10 min; for KRAS-G12D: experimental hit status flag (0/1); for experimental hit status KRAS-G12D: 0/1 flag
T2 construct: purchased GSK/GenScript
Experimental: as §1, §2

lysozyme (Lyo) = assay: Intact protein MS photoaffinity labeling screen, lysozyme; settings: intact protein MS after 10 min irradiation
Experimental: as §1

myoglobin (Myo) = assay: Intact protein MS photoaffinity labeling screen, myoglobin; settings: intact protein MS after 10 min irradiation
Experimental: as §1

STAT5B-NTD [2] = system: T3, STAT5B-NTD; assay: Intact MS photoaffinity labeling screen, STAT5B-NTD (365 nm, UHPLC-MS); settings: for MS labeling percentage, STAT5B: STAT5B-NTD, 365 nm 10 min, no photocatalyst; for STAT5B-NTD: experimental hit status flag (0/1); for experimental hit status STAT5B-NTD: 0/1 flag;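 on MS labeling percentage, STAT5B: 0.17 µL of 100 mM DMSO fragment stock added to the protein sample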
T3 construct: His-SUMO (N, cleaved yes); made in house; host or cells: E. coli BL21 RILP
Experimental: STAT5B protein in 7 µM concentration in pH 7.4 PBS buffer was pre-incubated with 0.17 µL PhP (in 100 mM DMSO solution) for 1 h at room temperature in dark. Irradiation was carried out at 4 °C for 10 min using 365 nm UV lamp.
(§3) During the analysis, the column temperature was maintained at a constant 60 °C, and a sample volume of 3 µL was injected for each analysis. Data acquisition was conducted in positive ion mode within the m/z 100–2000 (mass-to-charge ratio) range. For the full protocol and spectra of the hits, see Supplementary Note 2.

STAT5B-NTD [3] = system: T3, STAT5B-NTD; assay: Intact MS labeling screen, STAT5B-NTD conjugated with photocatalyst Ir-G2-PEG3-COOH (450 nm); settings: 450 nm 10 min;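 further: 0.14 µL of 100 mM DMSO fragment stock added to the conjugate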
Experimental: For the photocatalysis experiments, 1.4 µL photocatalyst (in 1.4 mM DMSO solution, 10 eq) was pre-incubated with 1.5 µL coupling reagent (0.75 µL, 5.6 mM EDC (20 eq)+0.75 µL 4.2 mM NHS and 1.5 µL 2.1 mM (15 eq) BOP for 30 min in dark. 30 µL STAT5B-NTD (in 7 µM concentration) was added and incubated further at room temperature overnight or at 37 °C for 1 h in dark. After addition of 0.14 µL PhP (in 100 mM DMSO) the solution was further incubated in dark for 1 h. Irradiation was carried out using 450 nm LED lamp (7.6Vx0A) for 10 min at 4 °C.
as §3

Row | SMILES | MS labeling percentage, CA [1] | MS labeling percentage, BRD4 (BRD4-BD1) | BRD4-BD1 (BRD4-BD1) | MS labeling percentage, KRas (KRas^G12D) | KRAS-G12D (KRas^G12D) | MS labeling percentage, Lyo (lysozyme (Lyo)) | MS labeling percentage, Myo (myoglobin (Myo)) | MS labeling percentage, STAT5B (STAT5B-NTD [2]) | STAT5B-NTD (STAT5B-NTD [2]) | MS labeling percentage, STAT5B+photocat (STAT5B-NTD [3]) | experimental hit status BRD4-BD1 (BRD4-BD1) | experimental hit status KRAS-G12D (KRas^G12D) | experimental hit status STAT5B-NTD (STAT5B-NTD [2])
1 | CC1(CCC(=O)NC2CCc3nc(C(C)(C)C)cn3C2)N=N1 (stereo not drawn) [PhP016, CC(C)(C)c(c1)nc(n12)CCC(C2)NC(=O)CCC3(C)N=N3] | 0.6% | 0.3% | 0 | 0.2% | 0 | 0% | 0.2% | 0% | 0 | 8.9% | – | – | –
2 | Cc1nc2cc(NC(=O)CCC3(C)N=N3)ccc2n1-c1ccccc1 [PhP017, c1ccccc1-n(c(n2)C)c(c23)ccc(c3)NC(=O)CCC4(C)N=N4] | 0.6% | 3.4% | 0 | 0.9% | 0 | 0.1% | 0.5% | 1% | 0 | 4.4% | – | – | –
3 | COC(=O)C(NC(=O)CCC1(C)N=N1)c1ccc(C)cc1 (stereo not drawn) [PhP019, c1cc(C)ccc1C(C(=O)OC)NC(=O)CCC2(C)N=N2] | 0.2% | 0.3% | – | 0% | – | 0% | 0.1% | 1% | – | 2.7% | 0 | 0 | 0
4 | Cn1c(CCNC(=O)CCC2(C)N=N2)nc2ccccc21 [PhP020, c1cccc(c12)n(C)c(n2)CCNC(=O)CCC3(C)N=N3] | 0.2% | 0.4% | – | 0% | – | 0% | 0.3% | 0% | – | 0.6% | 0 | 0 | 0
5 | Cc1nn(C)cc1CNC(=O)CCC1(C)N=N1 [PhP021, Cc1nn(C)cc1CNC(=O)CCC2(C)N=N2] | 0.7% | 0.9% | – | 0.2% | – | 0% | 0.3% | 1% | – | 0.4% | 0 | 0 | 0
6 | CC1(CCC(=O)NCCCCN2CCOCC2)N=N1 [PhP022, N1=NC1(C)CCC(=O)NCCCCN2CCOCC2] | 0.5% | 0.6% | – | 0.5% | – | 0% | 0.2% | 1% | – | 0.4% | 0 | 0 | 0
7 | Cc1cccc2nc(CNC(=O)CCC3(C)N=N3)[nH]c12 [PhP023, c1ccc(C)c(c12)[nH]c(n2)CNC(=O)CCC3(C)N=N3] | 0.3% | 0.9% | – | 0.7% | – | 0% | 0.2% | 1% | – | 0% | 0 | 0 | 0
8 | CC1(CCC(=O)NCc2cccc(C(=O)OC(C)(C)C)c2)N=N1 [PhP024, CC(C)(C)OC(=O)c1cccc(c1)CNC(=O)CCC2(C)N=N2] | 0.2% | 1.4% | – | 0.1% | – | 0% | 0.2% | 0% | – | 7.2% | 0 | 0 | 0
9 | CC1(CCC(=O)NCc2ccccc2NS(C)(=O)=O)N=N1 [PhP025, CS(=O)(=O)Nc1ccccc1CNC(=O)CCC2(C)N=N2] | 0.2% | 0.2% | – | 0.1% | – | 0% | 0.1% | 0% | – | 1.2% | 0 | 0 | 0
10 | Cc1ccc(C(NC(=O)CCC2(C)N=N2)c2ccccn2)cc1 (stereo not drawn) [PhP026, n1ccccc1C(c(cc2)ccc2C)NC(=O)CCC3(C)N=N3] | 0.4% | 0.4% | – | 0.3% | – | 0.4% | 0.2% | 1% | – | 5% | 0 | 0 | 0
11 | CC1(CCC(=O)NCCNC(=O)c2ccc(Cl)cc2)N=N1 [PhP027, N1=NC1(C)CCC(=O)NCCNC(=O)c2ccc(Cl)cc2] | 0.4% | 0.5% | – | 0.1% | – | 0% | 0.2% | 1% | – | 5.2% | 0 | 0 | 0
12 | CC1(CCC(=O)NCc2ccccc2O)N=N1 [PhP028, N1=NC1(C)CCC(=O)NCc2ccccc2O] | 0% | 57% | – | 0.4% | – | 0% | 0.2% | 1% | – | 0.3% | 0 | 0 | 0

Reference: paper PMC11292009, “Mapping protein binding sites by photoreactive fragment pharmacophores” (Communications Chemistry, 2024)
